Laboratory results from patent publication US20130102619A1, “2-PYRIDYLOXY-4-NITRILE OREXIN RECEPTOR ANTAGONISTS” (priority 2011, published 2013).

How the values were obtained:
[1] = molecular target: T1, human orexin-2 receptor (Homo sapiens (Human), UniProt O43614); assay: radioligand binding assay, orexin-2 receptor (membranes from CHO cells); settings: CHO cell membranes, read-out: hOX2 hKi
Method: (§1) The utility of the compounds in accordance with the present invention as orexin receptor OX1R and/or OX2R antagonists may be readily determined without undue experimentation by methodology well known in the art, including the “FLIPR Ca^2+ Flux Assay” (Okumura et al., Biochem. Biophys. Res. Comm. 280:976-981, 2001). In a typical experiment the OX1 and OX2 receptor antagonistic activity of the compounds of the present invention was determined in accordance with the following experimental method. For intracellular calcium measurements, Chinese hamster ovary (CHO) cells expressing the rat orexin-1 receptor or the human orexin-2 receptor, are grown in Iscove's modified DMEM containing 2 mM L-glutamine, […], 1% hypoxanthine-thymidine supplement, 100 U/ml penicillin, 100 ug/ml streptomycin and 10% heat-inactivated fetal calf serum (FCS). The cells are seeded at 20,000 cells/well into Becton-Dickinson black 384-well clear bottom sterile plates coated with poly-D-lysine. All reagents were from GIBCO-Invitrogen Corp. The seeded plates are incubated overnight at 37° C. and 5% CO2. Ala-6,12 human orexin-A as the agonist is prepared as a 1 mM stock solution in 1% bovine serum albumin (BSA) and diluted in assay buffer (HBSS containing 20 mM HEPES, 0.1% BSA and 2.5 mM probenecid, pH7.4) for use in the assay at a final concentration of 70 pM. Test compounds are prepared as 10 mM stock solution in DMSO, then diluted in 384-well plates, first in DMSO, then assay buffer. On the day of the assay, cells are washed 3 times with 100 ul assay buffer and then incubated for 60 min (37° C., 5% CO2) in 60 ul assay buffer containing 1 uM Fluo-4AM ester, 0.02% pluronic acid, and 1% BSA. The dye loading solution is then aspirated and cells are washed 3 times with 100 ul assay buffer. 30 ul of that same buffer is left in each well. Within the Fluorescent Imaging Plate Reader (FLIPR, Molecular Devices), test compounds are added to the plate in a volume of 25 ul, incubated for 5 min and finally 25 ul of agonist is added. Fluorescence is measured for each well at 1 second intervals for 5 minutes and the height of each fluorescence peak is compared to the height of the fluorescence peak induced by 70 pM Ala-6,12 orexin-A with buffer in place of antagonist. […] Alternatively, compound potency can be assessed by a radioligand binding assay (described in Bergman et. al. Bioorg. Med. Chem. Lett. 2008, 18, 1425-1430) in which the inhibition constant (Ki) is determined in membranes prepared from CHO cells expressing either the OX1 or OX2 receptor. The intrinsic orexin receptor antagonist activity of a compound which may be used in the present invention may be determined by these assays.

[2] = molecular target: T1, human orexin-2 receptor; assay: FLIPR Ca2+ Flux Assay, CHO cells expressing human orexin-2 receptor; format: cell-based; settings: 70 pM Ala-6,12 orexin-A agonist, read-out: hOX2R FLIPR IC50
Method: as §1

[3] = molecular target: rat orexin-1 receptor (Rattus norvegicus (Rat), UniProt P56718); assay: FLIPR Ca2+ Flux Assay, CHO cells expressing rat orexin-1 receptor; format: cell-based; settings: 70 pM Ala-6,12 orexin-A agonist, read-out: hOX1R FLIPR IC50;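 also: concentration giving 50% inhibition of the agonist-induced calcium response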
Method: as §1

[4] = molecular target: OX1 receptor (hOX1) (Homo sapiens, UniProt O43613); assay: radioligand binding assay, orexin-1 receptor (membranes from CHO cells); settings: CHO cell membranes, read-out: hOX1 hKi
Method: In a typical experiment the OX1 and OX2 receptor antagonistic activity of the compounds of the present invention was determined in accordance with the following experimental method. For intracellular calcium measurements, Chinese hamster ovary (CHO) cells expressing the rat orexin-1 receptor or the human orexin-2 receptor, are grown in Iscove's modified DMEM containing 2 mM L-glutamine, […], 1% hypoxanthine-thymidine supplement, 100 U/ml penicillin, 100 ug/ml streptomycin and 10% heat-inactivated fetal calf serum (FCS). The cells are seeded at 20,000 cells/well into Becton-Dickinson black 384-well clear bottom sterile plates coated with poly-D-lysine. All reagents were from GIBCO-Invitrogen Corp. The seeded plates are incubated overnight at 37° C. and 5% CO2. Ala-6,12 human orexin-A as the agonist is prepared as a 1 mM stock solution in 1% bovine serum albumin (BSA) and diluted in assay buffer (HBSS containing 20 mM HEPES, 0.1% BSA and 2.5 mM probenecid, pH7.4) for use in the assay at a final concentration of 70 pM. Test compounds are prepared as 10 mM stock solution in DMSO, then diluted in 384-well plates, first in DMSO, then assay buffer. On the day of the assay, cells are washed 3 times with 100 ul assay buffer and then incubated for 60 min (37° C., 5% CO2) in 60 ul assay buffer containing 1 uM Fluo-4AM ester, 0.02% pluronic acid, and 1% BSA. The dye loading solution is then aspirated and cells are washed 3 times with 100 ul assay buffer. 30 ul of that same buffer is left in each well. Within the Fluorescent Imaging Plate Reader (FLIPR, Molecular Devices), test compounds are added to the plate in a volume of 25 ul, incubated for 5 min and finally 25 ul of agonist is added. Fluorescence is measured for each well at 1 second intervals for 5 minutes and the height of each fluorescence peak is compared to the height of the fluorescence peak induced by 70 pM Ala-6,12 orexin-A with buffer in place of antagonist. […] Alternatively, compound potency can be assessed by a radioligand binding assay (described in Bergman et. al. Bioorg. Med. Chem. Lett. 2008, 18, 1425-1430) in which the inhibition constant (Ki) is determined in membranes prepared from CHO cells expressing either the OX1 or OX2 receptor. The intrinsic orexin receptor antagonist activity of a compound which may be used in the present invention may be determined by these assays.

T1 sequence (O43614 whole entry): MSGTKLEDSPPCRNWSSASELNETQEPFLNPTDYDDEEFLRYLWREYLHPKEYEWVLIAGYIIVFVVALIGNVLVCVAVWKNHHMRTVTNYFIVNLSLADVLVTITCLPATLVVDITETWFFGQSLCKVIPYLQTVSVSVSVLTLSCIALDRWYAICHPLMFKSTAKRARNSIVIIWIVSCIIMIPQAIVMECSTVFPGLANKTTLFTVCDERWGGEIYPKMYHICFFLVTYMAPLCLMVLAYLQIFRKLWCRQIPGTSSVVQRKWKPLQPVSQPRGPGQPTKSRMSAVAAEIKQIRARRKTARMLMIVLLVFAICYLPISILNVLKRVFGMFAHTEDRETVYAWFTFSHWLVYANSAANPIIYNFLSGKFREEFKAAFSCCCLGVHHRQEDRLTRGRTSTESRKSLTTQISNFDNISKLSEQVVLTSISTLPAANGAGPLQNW
rat orexin-1 receptor, sequence (P56718 whole entry): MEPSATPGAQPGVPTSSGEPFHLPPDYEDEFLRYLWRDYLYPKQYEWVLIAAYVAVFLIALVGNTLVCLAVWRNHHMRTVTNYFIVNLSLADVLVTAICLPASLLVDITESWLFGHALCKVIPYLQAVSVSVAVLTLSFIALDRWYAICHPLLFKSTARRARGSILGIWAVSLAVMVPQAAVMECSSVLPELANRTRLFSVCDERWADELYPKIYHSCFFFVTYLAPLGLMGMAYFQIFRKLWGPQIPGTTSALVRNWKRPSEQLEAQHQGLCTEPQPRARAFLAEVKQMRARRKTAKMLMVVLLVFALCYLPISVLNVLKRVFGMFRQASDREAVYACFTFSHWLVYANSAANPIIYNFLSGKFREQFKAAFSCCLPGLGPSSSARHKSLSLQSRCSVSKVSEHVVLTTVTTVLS

Row | Structure (SMILES) | Ki [1] [nM] | IC50 [2] [nM] | IC50 [3] [nM] | Ki [4] [nM]
1 | C[C@@H]1CC[C@@H](Oc2cc(C#N)ccn2)CN1C(=O)c1ccsc1-c1ncccn1 [Example 32, 2-({(3R,6R)-6-methyl-1-[(2-pyrimidin-2-ylthiophen-3-yl)carbonyl]piperidin-3-yl}oxy)pyridine-4-carbonitrile] | 2.1 | 44 | 6740 | –
2 | C[C@@H]1CC[C@@H](Oc2cc(C#N)ccn2)CN1C(=O)c1sccc1-c1ncccn1 [Example 31] | 5.9 | 38 | > 10000 | 2720
3 | C[C@@H]1CC[C@@H](Oc2cc(C#N)ccn2)CN1C(=O)c1ccc(Cl)cc1-n1nccn1 [Example 29, 2-{[(3R,6R)-1-{[4-chloro-2-(2H-1,2,3-triazol-2-yl)phenyl]carbonyl}-6-methylpiperidin-3-yl]oxy}pyridine-4-carbonitrile] | 1.3 | 12 | 3400 | 1100
4 | C[C@@H]1CC[C@@H](Oc2cc(C#N)ccn2)CN1C(=O)c1sccc1-n1nccn1 [Example 14, 2-{[(3R,6R)-6-methyl-1-{[3-(2H-1,2,3-triazol-2-yl)thiophen-2-yl]carbonyl}piperidin-3-yl]oxy}pyridine-4-carbonitrile] | 15 | 65 | > 10000 | 5340
5 | C[C@@H]1CC[C@@H](Oc2cc(C#N)ccn2)CN1C(=O)c1nscc1-n1nccn1 [Example 11, 2-{[(3R,6R)-6-methyl-1-{[4-(2H-1,2,3-triazol-2-yl)isothiazol-3-yl]carbonyl}piperidin-3-yl]oxy}pyridine-4-carbonitrile] | 94 | – | – | 13000
6 | C[C@@H]1CC[C@@H](Oc2cc(C#N)ccn2)CN1C(=O)c1cc(F)ccc1-c1ncccn1 [Example 35, 2-({(3R,6R)-1-[(5-fluoro-2-pyrimidin-2-ylphenyl)carbonyl]-6-methylpiperidin-3-yl}oxy)pyridine-4-carbonitrile] | 1 | 31 | 8040 | 658
7 | CCOc1ccc(C(=O)N2C[C@H](Oc3cc(C#N)ccn3)CC[C@H]2C)c(-n2nccn2)c1 [Example 21, 2-{[(3R,6R)-1-{[4-ethoxy-2-(2H-1,2,3-triazol-2-yl)phenyl]carbonyl}-6-methylpiperidin-3-yl]oxy}pyridine-4-carbonitrile] | 3920 | – | – | 23200
8 | C[C@@H]1CC[C@@H](Oc2cc(C#N)ccn2)CN1C(=O)c1cc(Cl)ccc1-n1nccn1 [Example 16, 2-{[(3R,6R)-1-{[5-chloro-2-(2H-1,2,3-triazol-2-yl)phenyl]carbonyl}-6-methylpiperidin-3-yl]oxy}pyridine-4-carbonitrile] | 57 | – | – | 5640
9 | C[C@@H]1CC[C@@H](Oc2cc(C#N)ccn2)CN1C(=O)c1ccc(OCCO)cc1-n1nccn1 [Example 25, 2-{[(3R,6R)-1-{[4-(2-hydroxyethoxy)-2-(2H-1,2,3-triazol-2-yl)phenyl]carbonyl}-6-methylpiperidin-3-yl]oxy}pyridine-4-carbonitrile] | 10900 | – | – | 9440
10 | C[C@@H]1CC[C@@H](Oc2cc(C#N)ccn2)CN1C(=O)c1ccccc1-n1ncnn1 [Example 30, 2-{[(3R,6R)-6-methyl-1-{[2-(2H-tetrazol-2-yl)phenyl]carbonyl}piperidin-3-yl]oxy}pyridine-4-carbonitrile] | – | 110 | < 10000 | –
11 | Cc1nsc(-n2nccn2)c1C(=O)N1C[C@H](Oc2cc(C#N)ccn2)CC[C@H]1C [Example 13, 2-{[(3R,6R)-6-methyl-1-{[3-methyl-5-(2H-1,2,3-triazol-2-yl)isothiazol-4-yl]carbonyl}piperidin-3-yl]oxy}pyridin-4-carbonitrile] | 137 | – | – | 34500
12 | Cc1ccc(C(=O)N2C[C@H](Oc3cc(C#N)ccn3)CC[C@H]2C)c(-n2nccn2)n1 [Example 26, 2-{[(3R,6R)-6-methyl-1-{[6-methyl-2-(2H-1,2,3-triazol-2-yl)pyridin-3-yl]carbonyl}piperidin-3-yl]oxy}pyidine-4-carbonitrile] | 162 | – | – | 9440
13 | C[C@@H]1CC[C@@H](Oc2cc(C#N)ccn2)CN1C(=O)c1cc(C(N)=O)ccc1-n1nccn1 [Example 18, 3-({(2R,5R)-5-[(4-cyanopyridin-2-yl)oxy]-2-methylpiperidin-1-yl}carbonyl)-4-(2H-1,2,3-triazol-2-yl)benzamide] | 134 | – | – | 1290
14 | C[C@@H]1CC[C@@H](Oc2cc(C#N)ccn2)CN1C(=O)c1cn(C)nc1-n1nccn1 [Example 12, 2-{[(3R,6R)-6-methyl-1-{[1-methyl-3-(2H-1,2,3-triazol-2-yl)-1H-pyrazol-4-yl]carbonyl}piperidin-3-yl]oxy}pyridine-4-carbonitrile] | 151 | – | – | 5640
15 | C[C@@H]1CC[C@@H](Oc2cc(C#N)ccn2)CN1C(=O)c1ccc(OC(F)F)cc1-n1nccn1 [Example 24, 2-{[(3R,6R)-1-{[4-(difluoromethoxy)-2-(2H-1,2,3-triazol-2-yl)phenyl]carbonyl}-6-methylpiperidin-3-yl]oxy}pyridine-4-carbonitrile] | 79 | – | – | 23900
16 | C[C@@H]1CC[C@@H](Oc2cc(C#N)ccn2)CN1C(=O)c1ccc(C(F)(F)F)nc1-n1nccn1 [Example 27, 2-{[(3R,6R)-6-methyl-1-{[2-(2H-1,2,3-triazol-2-yl)-6-(trifluoromethyl)pyridin-3-yl]carbonyl}piperidin-3-yl]oxy}pyridine-4-carbonitrile] | 1040 | – | – | 9440
17 | COc1ccc(C(=O)N2C[C@H](Oc3cc(C#N)ccn3)CC[C@H]2C)c(Cl)n1 [Example 28, 2-({(3R,6R)-1-[(2-chloro-6-methoxypyridin-3-yl)carbonyl]-6-methylpiperidin-3-yl}oxy)pyridine-4-carbonitrile] | 618 | – | – | 2820
18 | C[C@@H]1CC[C@@H](Oc2cc(C#N)ccn2)CN1C(=O)c1ccc(OCF)cc1-n1nccn1 [Example 23, 2-{[(3R,6R)-1-{[4-(fluoromethoxy)-2-(2H-1,2,3-triazol-2-yl)phenyl]carbonyl}-6-methylpiperidin-3-yl]oxy}pyridine-4-carbonitrile] | 35 | – | – | 7840
